Results from patent US11407767B2, “Heterocyclyl substituted pyrrolopyridines that are inhibitors of the CDK12 kinase” (The University of Nottingham, priority 2017, dated 2022).

What was measured:
[1] = biological target: CDK12/CycK (Homo sapiens, UniProt Q9NYV4); experiment: Inhibition of CDK12 (ADP-Glo kinase assay); format: biochemical; conditions: 60 nM CDK12/CycK, 30 minutes pre-incubation, 1 μM ATP, 0.5 μM RBER-IRStide substrate, 1 h at 25° C., read-out: CDK12/cyclin K IC50
In short: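 ADP-Glo luminescence read after a 1 h, 25 °C reaction with 1 μM ATP and 0.5 μM RBER-IRStide peptide. Enzyme (60 nM) and compound were first pre-incubated 30 min; buffer 50 mM HEPES pH 7.5, 20 mM MgCl2, 3 mM MnCl2, 1% DMSO. IC50 fitted after blank subtraction.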

[2] = tested on: DM1 fibroblasts; experiment: Nuclear foci assay; format: cell-based; conditions: Fibroblast; DM1 fibroblasts treated for 24 hours, 11 point dilution 20 μM-19 nM, in situ hybridisation with cy3 labelled CAG10 probe
Protocol: DM1 fibroblasts were treated with compounds in an 11 point dilution series from 20 μM-19 nM for 24 hours. Following treatment, fluorescent in situ hybridisation was performed with a cy3 labelled CAG10 probe, to visualize nuclear foci and cells were analysed on a Molecular Devices plate reader with customised MetaExpress software (Ketley, A. et al. (2014). Hum Mol Genet, 23: 1551-1562). Compounds that reduced nuclear foci in a concentration dependent manner, compared to DMSO treated cells were identified.

Sequence of CDK12/CycK (Q9NYV4 whole entry): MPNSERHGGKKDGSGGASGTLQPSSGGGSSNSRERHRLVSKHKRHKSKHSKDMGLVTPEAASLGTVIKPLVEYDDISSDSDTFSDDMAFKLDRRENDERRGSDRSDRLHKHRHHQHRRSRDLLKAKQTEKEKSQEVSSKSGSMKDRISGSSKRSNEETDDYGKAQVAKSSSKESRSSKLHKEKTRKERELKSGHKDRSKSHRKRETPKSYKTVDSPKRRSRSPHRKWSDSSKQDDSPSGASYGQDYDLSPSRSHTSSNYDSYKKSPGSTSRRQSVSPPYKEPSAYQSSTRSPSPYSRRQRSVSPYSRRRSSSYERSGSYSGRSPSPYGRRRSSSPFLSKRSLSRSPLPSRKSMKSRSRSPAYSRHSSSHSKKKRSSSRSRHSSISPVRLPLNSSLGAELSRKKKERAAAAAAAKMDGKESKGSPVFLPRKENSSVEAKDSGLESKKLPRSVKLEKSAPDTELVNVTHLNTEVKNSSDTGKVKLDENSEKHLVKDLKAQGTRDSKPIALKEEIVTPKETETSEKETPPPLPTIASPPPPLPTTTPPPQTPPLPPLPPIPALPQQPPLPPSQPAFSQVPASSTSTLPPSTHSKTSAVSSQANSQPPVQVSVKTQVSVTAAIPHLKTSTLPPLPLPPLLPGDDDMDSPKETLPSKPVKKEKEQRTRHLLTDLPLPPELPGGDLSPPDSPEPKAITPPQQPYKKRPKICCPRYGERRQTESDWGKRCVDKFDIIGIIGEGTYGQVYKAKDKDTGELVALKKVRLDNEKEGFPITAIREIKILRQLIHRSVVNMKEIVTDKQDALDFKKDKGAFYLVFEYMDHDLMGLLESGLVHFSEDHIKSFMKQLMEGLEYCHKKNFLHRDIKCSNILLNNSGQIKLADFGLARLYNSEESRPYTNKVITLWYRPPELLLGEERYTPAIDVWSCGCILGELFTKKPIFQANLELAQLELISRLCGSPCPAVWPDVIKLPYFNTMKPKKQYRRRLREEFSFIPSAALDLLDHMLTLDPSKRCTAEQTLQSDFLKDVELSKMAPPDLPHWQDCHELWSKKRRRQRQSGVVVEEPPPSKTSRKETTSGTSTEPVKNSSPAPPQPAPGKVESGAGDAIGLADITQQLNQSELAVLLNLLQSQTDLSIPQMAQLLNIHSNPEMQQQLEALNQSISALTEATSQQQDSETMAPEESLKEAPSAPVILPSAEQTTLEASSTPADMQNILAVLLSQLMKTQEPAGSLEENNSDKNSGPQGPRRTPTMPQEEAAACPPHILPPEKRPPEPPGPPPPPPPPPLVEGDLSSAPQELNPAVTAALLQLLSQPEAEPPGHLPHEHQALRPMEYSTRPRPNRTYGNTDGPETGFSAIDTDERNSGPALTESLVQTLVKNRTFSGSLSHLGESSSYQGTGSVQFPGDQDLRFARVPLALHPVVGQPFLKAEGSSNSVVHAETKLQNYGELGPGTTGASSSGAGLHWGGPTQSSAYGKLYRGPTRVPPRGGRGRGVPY
Sequence of CDK12/CycK (O75909 whole entry partner): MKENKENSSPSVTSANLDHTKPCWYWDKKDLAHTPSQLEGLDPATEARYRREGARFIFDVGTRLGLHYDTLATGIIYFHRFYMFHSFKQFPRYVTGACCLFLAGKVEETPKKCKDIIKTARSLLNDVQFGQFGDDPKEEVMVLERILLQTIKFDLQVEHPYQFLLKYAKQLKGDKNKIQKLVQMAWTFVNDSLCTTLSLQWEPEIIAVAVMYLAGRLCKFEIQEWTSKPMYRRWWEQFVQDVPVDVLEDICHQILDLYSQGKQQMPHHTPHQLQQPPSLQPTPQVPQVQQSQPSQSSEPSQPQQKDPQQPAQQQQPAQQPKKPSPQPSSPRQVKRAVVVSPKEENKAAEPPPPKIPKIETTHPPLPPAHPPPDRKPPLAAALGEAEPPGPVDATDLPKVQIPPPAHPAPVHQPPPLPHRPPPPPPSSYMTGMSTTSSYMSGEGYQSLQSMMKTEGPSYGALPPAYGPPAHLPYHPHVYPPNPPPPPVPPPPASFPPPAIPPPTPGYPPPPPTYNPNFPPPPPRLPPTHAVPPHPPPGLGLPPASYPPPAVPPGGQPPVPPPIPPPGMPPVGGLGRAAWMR

Structure (SMILES) | IC50 [1] | IC50 [2]
CC(C)(CCl)C(=O)N1CCC[C@H]1C(=O)NCCc1cc2c(-c3cnn4ncccc34)ccnc2[nH]1 [Example 45, (S)-1-(3-Chloro-2,2-dimethylpropanoyl)-N-(2-(4-(pyrazolo[1,5-b]pyridazin-3-yl)-1H-pyrrolo[2,3-b]pyridin-2-yl)ethyl)pyrrolidine-2-carboxamide] | 100 to 1000 nM | 10000 to 100000 nM
O=C(CCl)Nc1cccc(C(=O)N2CC[C@@H](c3cc4c(-c5cnn6ncccc56)ccnc4[nH]3)C2)c1 [Example 159, (R)-2-Chloro-N-(3-(3-(4-(pyrazolo[1,5-b]pyridazin-3-yl)-1H-pyrrolo[2,3-b]pyridin-2-yl)pyrrolidine-1-carbonyl)phenyl)acetamide] | < 100 nM | < 1000 nM
C=CC(=O)Nc1cccc(C(=O)N2CC[C@H](c3cc4c(-c5cnn6ncccc56)ccnc4[nH]3)C2)c1 [Example 151, (S)—N-(3-(3-(4-(Pyrazolo[1,5-b]pyridazin-3-yl)-1H-pyrrolo[2,3-b]pyridin-2-yl)pyrrolidine-1-carbonyl)phenyl)acrylamide] | < 100 nM | < 1000 nM
CC(C)=CC(=O)N1CCC[C@H]1C(=O)NCCc1cc2c(-c3cnn4ncccc34)ccnc2[nH]1 [Example 42, (S)-1-(3-Methylbut-2-enoyl)-N-(2-(4-(pyrazolo[1,5-b]pyridazin-3-yl)-1H-pyrrolo[2,3-b]pyridin-2-yl)ethyl)pyrrolidine-2-carboxamide] | 100 to 1000 nM | 1000 to 10000 nM
CN(C)C/C=C/C(=O)N1CCC(CC(=O)N2CCC(c3cc4c(-c5cnn6ncccc56)ccnc4[nH]3)C2)CC1 (stereo not shown) [Example 69, (E)-4-(Dimethylamino)-1-(4-(2-oxo-2-(3-(4-(pyrazolo[1,5-b]pyridazin-3-yl)-1H-pyrrolo[2,3-b]pyridin-2-yl)pyrrolidin-1-yl)ethyl)piperidin-1-yl)but-2-en-1-one] | 100 to 1000 nM | 10000 to 100000 nM

Further lines, with some results ahead:

IC50 [1] | Structure (SMILES) | IC50 [2]
100 to 1000 nM | CC#CC(=O)N1CCC[C@H]1C(=O)NCCc1cc2c(-c3cnn4ncccc34)ccnc2[nH]1 [Example 83, (S)-1-(But-2-ynoyl)-N-(2-(4-(pyrazolo[1,5-b]pyridazin-3-yl)-1H-pyrrolo[2,3-b]pyridin-2-yl)ethyl)pyrrolidine-2-carboxamide] | 1000 to 10000 nM
100 to 1000 nM | C=CC(=O)Nc1ccc(C(=O)NCc2cc3c(-c4cnn5ncccc45)ccnc3[nH]2)cc1 [Example 57, 4-Acrylamido-N-((4-(pyrazolo[1,5-b]pyridazin-3-yl)-1H-pyrrolo[2,3-b]pyridin-2-yl)methyl)benzamide] | 1000 to 10000 nM
100 to 1000 nM | C=CC(=O)NC(Cc1ccccc1)C(=O)NCCc1cc2c(-c3cnn4ncccc34)ccnc2[nH]1 (stereo not shown) [Example 211, N-(1-Oxo-3-phenyl-1-((2-(4-(pyrazolo[1,5-b]pyridazin-3-yl)-1H-pyrrolo[2,3-b]pyridin-2-yl)ethyl)amino)propan-2-yl)acrylamide] | 1000 to 10000 nM
